Reference: PubChem BioAssay AID298 (DTP/NCI, 2004)
Where “and” joins values, the source holds several entries; their conditions need not be identical. Equal entries are not always repeated. Inconclusive results are not listed.

System: MX-1 breast xenograft, intrarenal, nude mice, tumor weight
Assay: NCI In Vivo Anticancer Drug Screen. Data for tumor model Human Mammary Carcinoma MX-1 Xenograft (intrarenal inoculation) in NU/NU BALB/C (nude) mice
Details: endpoint: mean tumor weight change, higher = larger tumour
Summary of the method: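 Antitumor activity is expressed as a T/C ratio. The treated group's tumor size or survival is compared against the vehicle-treated control group in mice bearing transplanted tumors.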

[1] = dose: 100.0 mg/kg/injection, schedule: Q04DX003 (ip), vehicle: saline with Tween-80
[2] = dose: 25.0 mg/kg/injection, schedule: Q04DX003 (ip), vehicle: saline with Tween-80
[3] = dose: 50.0 mg/kg/injection, schedule: Q04DX003 (ip), vehicle: saline with Tween-80
[4] = dose: 150.0 mg/kg/injection, schedule: Q04DX003 (ip), vehicle: saline with Tween-80
[5] = dose: 300.0 mg/kg/injection, schedule: Q04DX003 (ip), vehicle: saline with Tween-80

With `CNC(=O)N(C)N=NCCCl` the T/C [1] was 15 % of control, the T/C (dose: 140.0 mg/kg/injection, schedule: Q04DX003 (ip), vehicle: saline with Tween-80) was 10 % of control and the T/C (dose: 200.0 mg/kg/injection, schedule: Q04DX003 (ip), vehicle: saline with Tween-80) was 1 % of control. For the same compound, the T/C (dose: 240.0 mg/kg/injection, schedule: Q04DX003 (ip), vehicle: saline with Tween-80) was 8 % of control and the T/C (dose: 400.0 mg/kg/injection, schedule: Q04DX003 (ip), vehicle: saline with Tween-80) was -76 % of control.
In the case of `COC1C(CO)OC(n2c3c(Cl)cccc3c3c4c(c5c6cccc(Cl)c6[nH]c5c32)C(=O)NC4=O)C(O)C1O` (configuration not stated), the T/C (dose: 100.0 mg/kg/injection, schedule: Q04DX003 (ip), vehicle: distilled water + Tween-80) is reported as 69 % of control, the T/C (dose: 200.0 mg/kg/injection, schedule: Q04DX003 (ip), vehicle: distilled water + Tween-80) is reported as 43 % of control and the T/C (dose: 400.0 mg/kg/injection, schedule: Q04DX003 (ip), vehicle: distilled water + Tween-80) is reported as 21 % of control. The T/C (dose: 800.0 mg/kg/injection, schedule: Q04DX003 (ip), vehicle: distilled water + Tween-80) was 30 % of control.
`CC(=O)Nc1ccc(Nc2ccc(C(=C3C=CC(=[N+](C)CCC#N)C=C3)c3ccc(N(C)CCC#N)cc3)cc2)cc1` was tested, and the T/C (dose: 12.5 mg/kg/injection, schedule: Q04DX003 (ip), vehicle: saline) was 45 % of control, the T/C (dose: 25.0 mg/kg/injection, schedule: Q04DX003 (ip), vehicle: saline) was 80 % of control and the T/C (dose: 50.0 mg/kg/injection, schedule: Q04DX003 (ip), vehicle: saline) was 63 % of control. For the same compound, the T/C (dose: 100.0 mg/kg/injection, schedule: Q04DX003 (ip), vehicle: saline) was 97 % of control, the T/C (dose: 100.0 mg/kg/injection, schedule: Q04DX003 (ip), vehicle: suspension in saline) was 84 % of control and the T/C (dose: 200.0 mg/kg/injection, schedule: Q04DX003 (ip), vehicle: suspension in saline) was 45 % of control.
`O=C(O)CCCc1ccc(N(CCCl)CCCl)cc1` was tested, and the T/C (dose: 12.0 mg/kg/injection, schedule: Q04DX003 (ip), vehicle: Klucel (hydroxypropylcellulose) (HPC)) was 1 % of control and 4 % of control, the T/C (dose: 18.0 mg/kg/injection, schedule: Q04DX003 (ip), vehicle: Klucel (hydroxypropylcellulose) (HPC)) was 4 % of control and the T/C (dose: 27.0 mg/kg/injection, schedule: Q04DX003 (ip), vehicle: Klucel (hydroxypropylcellulose) (HPC)) was -55 % of control.
With `[Cl][Pt][Cl].[NH-]C(CO)C(=O)O` (configuration not stated) the T/C (dose: 12.5 mg/kg/injection, schedule: Q04DX003 (ip), vehicle: water) was 92 % of control, the T/C (dose: 25.0 mg/kg/injection, schedule: Q04DX003 (ip), vehicle: water) was 100 % of control and the T/C (dose: 37.5 mg/kg/injection, schedule: Q04DX003 (ip), vehicle: water) was 57 % of control. The T/C (dose: 50.0 mg/kg/injection, schedule: Q04DX003 (ip), vehicle: water) was 100 % of control, the T/C (dose: 75.0 mg/kg/injection, schedule: Q04DX003 (ip), vehicle: water) was 11 % of control and the T/C (dose: 100.0 mg/kg/injection, schedule: Q04DX003 (ip), vehicle: water) was 16 % of control.
In the case of `CC(=O)C[n+]1ccccc1Sc1ccc(Cl)cc1`, the T/C [2] is reported as 66 % of control, the T/C [3] is reported as 64 % of control and the T/C [1] is reported as 89 % of control.
In the case of `O=c1[nH]cnc2c1nnn2C1OC(CO)C(O)C1O` (configuration not stated), the T/C (dose: 150.0 mg/kg/injection, schedule: Q04DX003 (ip), vehicle: saline) is reported as 18 % of control and 32 % of control, the T/C (dose: 150.0 mg/kg/injection, schedule: Q04DX003 (ip), vehicle: suspension in saline) is reported as 11 % of control and 24 % of control and the T/C (dose: 300.0 mg/kg/injection, schedule: Q04DX003 (ip), vehicle: saline) is reported as 17 % of control and 19 % of control. The T/C (dose: 300.0 mg/kg/injection, schedule: Q04DX003 (ip), vehicle: suspension in saline) was 10 % of control and 20 % of control, the T/C (dose: 600.0 mg/kg/injection, schedule: Q04DX003 (ip), vehicle: saline) was 8 % of control and 13 % of control and the T/C (dose: 600.0 mg/kg/injection, schedule: Q04DX003 (ip), vehicle: suspension in saline) was 9 % of control and 13 % of control. For the same compound, the T/C (dose: 1200.0 mg/kg/injection, schedule: Q04DX003 (ip), vehicle: saline) was 9 % of control and 11 % of control and the T/C (dose: 1200.0 mg/kg/injection, schedule: Q04DX003 (ip), vehicle: suspension in saline) was 8 % of control and 12 % of control.
In the case of `Nc1ccn([C@@H]2C=C(CO)[C@@H](O)[C@H]2O)c(=O)n1`, the T/C (dose: 0.5 mg/kg/injection, schedule: Q01DX009 (ip), vehicle: saline) is reported as 26 % of control and the T/C (dose: 2.0 mg/kg/injection, schedule: Q01DX009 (ip), vehicle: saline) is reported as 3 % of control.
`COC(=O)c1ccc(N=NN(C)COC(C)=O)cc1` was tested, and the T/C (dose: 60.0 mg/kg/injection, schedule: Q04DX003 (ip), vehicle: Klucel (hydroxypropylcellulose) (HPC)) was 50 % of control, the T/C (dose: 120.0 mg/kg/injection, schedule: Q04DX003 (ip), vehicle: Klucel (hydroxypropylcellulose) (HPC)) was 21 % of control and the T/C (dose: 400.0 mg/kg/injection, schedule: Q04DX003 (ip), vehicle: Klucel (hydroxypropylcellulose) (HPC)) was 56 % of control and 58 % of control. The T/C (dose: 666.67 mg/kg/injection, schedule: Q04DX003 (ip), vehicle: Klucel (hydroxypropylcellulose) (HPC)) was 33 % of control and 40 % of control.
`COc1cc([C@@H]2c3cc4c(cc3[C@@H](OC3OC5COC(C)OC5C(O)C3O)[C@H]3COC(=O)[C@H]23)OCO4)cc(OC)c1O` (some centres not stated) was tested, and the T/C (dose: 2.0 mg/kg/injection, schedule: Q01DX010 (ip), vehicle: saline) was 58 % of control and 62 % of control, the T/C (dose: 4.0 mg/kg/injection, schedule: Q01DX010 (ip), vehicle: saline) was 23 % of control and 30 % of control and the T/C (dose: 8.0 mg/kg/injection, schedule: Q01DX010 (ip), vehicle: saline) was 5 % of control and 20 % of control. The T/C (dose: 16.0 mg/kg/injection, schedule: Q01DX010 (ip), vehicle: saline) was 4 % of control and 6 % of control and the T/C (dose: 64.0 mg/kg/injection, schedule: Q04DX003 (ip), vehicle: saline) was 76 % of control.
`NCc1cc(O)c(O)c(O)c1` was tested, and the T/C (dose: 150.0 mg/kg/injection, schedule: Q04DX003 (ip), vehicle: water) was 99 % of control, the T/C (dose: 300.0 mg/kg/injection, schedule: Q04DX003 (ip), vehicle: water) was 120 % of control and the T/C (dose: 600.0 mg/kg/injection, schedule: Q04DX003 (ip), vehicle: water) was 89 % of control. The T/C (dose: 1200.0 mg/kg/injection, schedule: Q04DX003 (ip), vehicle: water) was 91 % of control.
With `CCOC(=O)c1ccc(NN=NCCF)cc1` the T/C (dose: 150.0 mg/kg/injection, schedule: Q04DX003 (ip), vehicle: distilled water + Tween-80 + alcohol) was 99 % of control, the T/C (dose: 300.0 mg/kg/injection, schedule: Q04DX003 (ip), vehicle: distilled water + Tween-80 + alcohol) was 89 % of control and the T/C (dose: 600.0 mg/kg/injection, schedule: Q04DX003 (ip), vehicle: distilled water + Tween-80 + alcohol) was 84 % of control. The T/C (dose: 1200.0 mg/kg/injection, schedule: Q04DX003 (ip), vehicle: distilled water + Tween-80 + alcohol) was 49 % of control.
With `COc1ccc(C(C)c2cc3c(cc2OC)OCO3)cc1` (configuration not stated) the T/C (dose: 12.5 mg/kg/injection, schedule: Q04DX003 (ip), vehicle: saline with Tween-80) was 88 % of control, the T/C [2] was 79 % of control and the T/C [3] was 83 % of control. The T/C [1] was 53 % of control.
In the case of `O=C1c2ccccc2C(Cl)(c2ccc(Cl)cc2)c2ccc(Cl)cc21` (configuration not stated), the T/C [4] is reported as 53 % of control, the T/C [5] is reported as 60 % of control and the T/C (dose: 600.0 mg/kg/injection, schedule: Q04DX003 (ip), vehicle: saline with Tween-80) is reported as 48 % of control. The T/C (dose: 1200.0 mg/kg/injection, schedule: Q04DX003 (ip), vehicle: saline with Tween-80) was 30 % of control.
In the case of `N#CCS(=O)(=O)c1cccc[n+]1[O-]`, the T/C [4] is reported as 77 % of control and the T/C [5] is reported as 67 % of control.
`O=C(Nc1ccccc1)c1c(O)[nH]c(=S)[nH]c1=O` was tested, and the T/C [3] was 85 % of control, the T/C (dose: 75.0 mg/kg/injection, schedule: Q04DX003 (ip), vehicle: saline with Tween-80) was 98 % of control and the T/C [1] was 108 % of control.
With `CC(=O)N(C)O` the T/C (dose: 37.5 mg/kg/injection, schedule: Q04DX003 (sc), vehicle: saline with Tween-80) was 98 % of control, the T/C (dose: 75.0 mg/kg/injection, schedule: Q04DX003 (sc), vehicle: saline with Tween-80) was 80 % of control and the T/C (dose: 150.0 mg/kg/injection, schedule: Q04DX003 (sc), vehicle: saline with Tween-80) was 69 % of control. For the same compound, the T/C (dose: 300.0 mg/kg/injection, schedule: Q04DX003 (sc), vehicle: saline with Tween-80) was 87 % of control.
For `C[CH2][Sn]([Cl])([CH2]C)[c]1cc[c]([Sn]([Cl])([CH2]C)[CH2]C)cc1`, the T/C (dose: 0.25 mg/kg/injection, schedule: Q04DX003 (ip), vehicle: Klucel (hydroxypropylcellulose) (HPC)) was 103 % of control, the T/C (dose: 0.5 mg/kg/injection, schedule: Q04DX003 (ip), vehicle: Klucel (hydroxypropylcellulose) (HPC)) was 109 % of control and the T/C (dose: 1.0 mg/kg/injection, schedule: Q04DX003 (ip), vehicle: Klucel (hydroxypropylcellulose) (HPC)) was 95 % of control.
In the case of `C=CC1(C)CC(=O)C2(O)C(C)(O1)C(OC(C)=O)C(O)C1C(C)(C)CCC(O)C12C` (configuration not stated), the T/C (dose: 8.0 mg/kg/injection, schedule: Q04DX003 (ip), vehicle: DMSO) is reported as 159 % of control, the T/C (dose: 16.0 mg/kg/injection, schedule: Q04DX003 (ip), vehicle: DMSO) is reported as 100 % of control and 115 % of control and the T/C (dose: 64.0 mg/kg/injection, schedule: Q04DX003 (ip), vehicle: DMSO) is reported as 109 % of control.
